# Columns and labels:
# [1] = system: Pseudomonas aeruginosa (ATCC 15442); assay: Real-time microcalorimetric measurement of bacterial metabolic activity (heat flow, Calscreener); type: cell-based; conditions: chlorhexidine digluconate alone, tested 1-24 mg/L, TSB, 37 C, 24 h or more
# Protocol: Pseudomonas aeruginosa (ATCC 15442) was grown overnight in TSB (tryptic soy broth) medium, before being diluted 1×10^7 fold in fresh TSB. Subsequently […] aliquots of diluted bacteria suspensions were respectively supplemented with 1, 2, 4, 6, 12 and 24 mg/L of chlorhexidine (digluconate solution, 20% in H2O, Merck). The aqueous solution of chlorhexidine was kept refrigerated according to the manufacturer's technical sheet. Chlorhexidine or mQH2O as a vehicle were added to the bacterial suspensions to obtain the given concentrations followed by a brief vortexing. Bacterial aliquots were then distributed in the dedicated non-activated inserts of a 48-well plate and grown for 24h or more under static conditions at 37 C using Calscreener technology to measure bacterial growth and metabolic activity in Real-Time as described in https://cordis.europa.eu/project/id/784514.
# For the study of the combination of chlorhexidine and triafluocyl aforementioned diluted bacterial suspensions were supplemented with either chlorhexidine alone (1, 2, 4, 6, 12 mg/L) or mixed with triafluocyl (20 mg/L, Polpharma). Triafluocyl was stored in absolute ethanol in the refrigerator at a concentration of 3 mg/mL. Triafluocyl, chlorhexidine or both, and ethanol as a vehicle were added to the bacterial suspensions to obtain the given concentrations.
# Pseudomonas aeruginosa (ATCC 15442) was grown overnight in TSB (tryptic soy broth) medium, before being diluted 1×10^7 fold in fresh TSB. Subsequently […] aliquots of diluted bacteria suspensions were respectively supplemented with […] of alexidine dihydrochloride (stock solution of 3 mg/mL in ethanol, Merck). […] The stock solutions of alexidine and fluometacyl were kept frozen according to the manufacturer's technical sheet. Alexidine alone or with fluometacyl, and ethanol as a vehicle were added to the bacterial suspensions to obtain the given concentrations followed by a brief vortexing. […]
# [2] = system: Staphylococcus aureus (MRSA, ATCC 6538); assay: as above; type: cell-based
# Protocol: Staphylococcus aureus (MRSA, ATCC 6538) was grown overnight in TSB (tryptic soy broth) medium, before being diluted 1×10^6 fold in fresh TSB. Subsequently […] aliquots of diluted bacteria suspensions were respectively supplemented with 1 and 2 mg/L of chlorhexidine (digluconate solution, 20% in H2O, Merck). […] The aqueous solution of chlorhexidine and the ethanol-based solution of triafluocyl were kept refrigerated. Chlorhexidine, triafluocyl or both, and ethanol as a vehicle were added to the bacterial suspensions to obtain the given concentrations followed by a brief vortexing. Bacterial aliquots were then distributed in the dedicated non-activated inserts of a 48-well plate and grown for 24 h or more under static conditions at 37 C using Calscreener technology to measure bacterial growth and metabolic activity in Real-Time as described in https://cordis.europa.eu/project/id/784514.
# Staphylococcus aureus (MRSA, ATCC 6538) was grown overnight in TSB (tryptic soy broth) medium, before being diluted 1×10^6 fold in fresh TSB. Subsequently […] aliquots of diluted bacteria suspensions were respectively supplemented with 0.25, 0.5 and 1 μg/mL of chlorhexidine (digluconate solution, 20% in H2O, Merck) or alexidine dihydrochloride (stock solution of 3 mg/mL in ethanol, Merck).
# The aqueous solution of chlorhexidine and the ethanol-based solution of alexidine were kept refrigerated. Chlorhexidine, alexidine, and ethanol as a vehicle were added to the bacterial suspensions to obtain the given concentrations followed by a brief vortexing. Bacterial aliquots were then distributed in the dedicated non-activated inserts of a 48-well plate and grown for 24 h or more under static conditions at 37 C using Calscreener technology to measure bacterial growth and metabolic activity in Real-Time as described in https://cordis.europa.eu/project/id/784514.
# Staphylococcus aureus (MRSA, ATCC 6538) was grown overnight in TSB (tryptic soy broth) medium, before being diluted 1×10^6 fold in fresh TSB. Subsequently […] aliquots of diluted bacteria suspensions were respectively supplemented with […] of alexidine dihydrochloride (stock solution of 3 mg/mL in ethanol, Merck). […] The ethanol-based solutions of alexidine and fluometacyl were stored at −20° C.
# Alexidine alone or with fluometacyl, and ethanol as a vehicle were added to the bacterial suspensions to obtain the given concentrations followed by a brief vortexing. Bacterial aliquots were then distributed in the dedicated non-activated inserts of a 48-well plate and grown for 24 h or more under static conditions at 37 C using Calscreener technology to measure bacterial growth and metabolic activity in Real-Time.
# [3] = system: Staphylococcus aureus MSSA; conditions: cited from earlier work
# Enterococcus faecalis = conditions: cited from earlier work
# Streptococcus mutans = conditions: cited from earlier work
# Lactobacillus reuteri = conditions: cited from earlier work
# Lactobacillus fermentum = conditions: cited from earlier work
# [4] = system: Lactobacillus acidophilus; conditions: cited from earlier work
# Porphyromonas gingivalis = conditions: cited from earlier work
# Fusobacterium nucleatum = conditions: cited from earlier work
# Escherichia coli = conditions: cited from earlier work
# Pseudomonas aeruginosa = conditions: cited from earlier work
# Candida albicans = conditions: cited from earlier work
# Candida tropicalis = conditions: cited from earlier work
smiles,measurement,setting,value
"[H]/N=C(\N/C(=N/[H])NCCCCCCNC(=N)NC(=N)Nc1ccc(Cl)cc1)Nc1ccc(Cl)cc1 [Chlorhexidine, chlorhexidine]",concentration that fully inhibits bacterial proliferation,[1],24 mg/L
same,effect on metabolic activity (heat flow),[2]; chlorhexidine 1 mg/L alone,strong shift in a metabolic activity
same,effect on metabolic activity (heat flow),[2]; chlorhexidine 1 mg/mL alone (Example 3),strong shift in a metabolic activity
same,concentration with full growth inhibition or bactericidal effect,"[2]; chlorhexidine digluconate alone, tested 1 and 2 mg/L",2 mg/L
same,MIC of chlorhexdine,[3],0.25 to 8 µg/mL
same,MIC of chlorhexdine,Enterococcus faecalis,4 to 16 µg/mL
same,MIC of chlorhexdine,Streptococcus mutans,0.9 to 4 µg/mL
same,MIC of chlorhexdine,Lactobacillus reuteri,0.125 to 4 µg/mL
same,MIC of chlorhexdine,Lactobacillus fermentum,0.25 to 1 µg/mL
same,MIC of chlorhexdine,[4],0.5 to 2 µg/mL
same,MIC of chlorhexdine,Porphyromonas gingivalis,0.9 µg/mL
same,MIC of chlorhexdine,Fusobacterium nucleatum,1.8 µg/mL
same,MIC of chlorhexdine,Escherichia coli,2 to 16 µg/mL
same,MIC of chlorhexdine,Pseudomonas aeruginosa,16 to 32 µg/mL
same,MIC of chlorhexdine,Candida albicans,1 to 16 µg/mL
same,MIC of chlorhexdine,Candida tropicalis,75 µg/mL

# Source: patent US20250375453A1, “HIGH-EFFICIENCY ANTIMICROBIAL COMPOSITION” (CM4CURE S.A., priority 2023, published 2025)
